Results from patent US9468641B2, “Anti-inflammatory pharmaceutical composition comprising benzopyranyl tetracycles” (SEOUL NATIONAL UNIVERSITY R&DB FOUNDATION, priority 2014, dated 2016).

system: BV-2 cells; experiment: Griess assay of LPS-induced nitrite release in BV-2 cells; format: cell-based; conditions: BV-2 cells, Griess assay; expressed as percentages of the nitrite level produced upon DMSO treatment (100%)
Method: Cells increase the secretion of nitrite when induced to be inflammatory, but decrease the secretion of nitrite in the presence of an anti-inflammatory agent. […] Cells were treated with the compounds in the absence or presence of 100 ng/mL LPS (lipopolysaccharide). After 24 hrs of incubation, the cell culture media were reacted with Griess reagent (0.1% naphthylethylenediamine dihydrochloride and 1% sulfanilamide in 2% phosphoric acid). Absorbance was measured at 550 nm using a microplate reader, and the level of nitrite was estimated by comparison with a sodium nitrite standard curve.

Structure (SMILES)	NO inhibition (%)
CC1(C)Oc2cc(O)ccc2C2C1=CCn1c(=O)n(C3CCCCC3)c(=O)n12 (centres unmarked) [Chemical Formula 3]	38.0
Cn1c(=O)n2n(c1=O)C1C(=CC2)C(C)(C)Oc2cc(O)ccc21 (centres unmarked) [Chemical Formula 4]	75.0
CC1(C)Oc2cc(O)ccc2C2C1=CCn1c(=O)n(Cc3ccccc3)c(=O)n12 (centres unmarked) [Chemical Formula 5]	63.0
Cc1ccc(-n2c(=O)n3n(c2=O)C2C(=CC3)C(C)(C)Oc3cc(O)ccc32)cc1 (centres unmarked) [Chemical Formula 6]	41.8
CC1(C)Oc2cc(O)ccc2C2C1=CCn1c(=O)n(-c3ccc(C(C)(C)C)cc3)c(=O)n12 (centres unmarked) [Chemical Formula 7]	92.1
COc1ccc(-n2c(=O)n3n(c2=O)C2C(=CC3)C(C)(C)Oc3cc(O)ccc32)cc1 (centres unmarked) [Chemical Formula 8]	77.7
COc1cccc(-n2c(=O)n3n(c2=O)C2C(=CC3)C(C)(C)Oc3cc(O)ccc32)c1 (centres unmarked) [Chemical Formula 9]	90.8
CC1(C)Oc2cc(O)ccc2C2C1=CCn1c(=O)n(-c3ccc(F)cc3)c(=O)n12 (centres unmarked) [Chemical Formula 10]	76.4
CC1(C)Oc2cc(O)ccc2C2C1=CCn1c(=O)n(-c3ccccc3I)c(=O)n12 (centres unmarked) [Chemical Formula 11]	55.2
CC1(C)Oc2cc(O)ccc2C2C1=CCn1c(=O)n(-c3cccc([N+](=O)[O-])c3)c(=O)n12 (centres unmarked) [Chemical Formula 12]	70.4
O=c1n(-c2ccccc2)c(=O)n2n1CC=C1C2c2ccc(O)cc2OC12CCCC2 (centres unmarked) [Chemical Formula 13]	70.4
O=c1n(C2CCCCC2)c(=O)n2n1CC=C1C2c2ccc(O)cc2OC12CCCC2 (centres unmarked) [Chemical Formula 14]	48.8
Cn1c(=O)n2n(c1=O)C1C(=CC2)C2(CCCC2)Oc2cc(O)ccc21 (centres unmarked) [Chemical Formula 15]	41.4
O=c1n(Cc2ccccc2)c(=O)n2n1CC=C1C2c2ccc(O)cc2OC12CCCC2 (centres unmarked) [Chemical Formula 16]	53.2
Cc1ccc(-n2c(=O)n3n(c2=O)C2C(=CC3)C3(CCCC3)Oc3cc(O)ccc32)cc1 (centres unmarked) [Chemical Formula 17]	72.1
CC(C)(C)c1ccc(-n2c(=O)n3n(c2=O)C2C(=CC3)C3(CCCC3)Oc3cc(O)ccc32)cc1 (centres unmarked) [Chemical Formula 18]	99.7
COc1ccc(-n2c(=O)n3n(c2=O)C2C(=CC3)C3(CCCC3)Oc3cc(O)ccc32)cc1 (centres unmarked) [Chemical Formula 19]	58.3
COc1cccc(-n2c(=O)n3n(c2=O)C2C(=CC3)C3(CCCC3)Oc3cc(O)ccc32)c1 (centres unmarked) [Chemical Formula 20]	63.0
O=c1n(-c2ccc(F)cc2)c(=O)n2n1CC=C1C2c2ccc(O)cc2OC12CCCC2 (centres unmarked) [Chemical Formula 21]	58.7

Structure (SMILES)	NO inhibition (%)
O=c1n(-c2ccccc2I)c(=O)n2n1CC=C1C2c2ccc(O)cc2OC12CCCC2 (centres unmarked) [Chemical Formula 22]	67.1
O=c1n(-c2cccc([N+](=O)[O-])c2)c(=O)n2n1CC=C1C2c2ccc(O)cc2OC12CCCC2 (centres unmarked) [Chemical Formula 23]	81.5
CC1(C)Oc2cc(O)ccc2C2C1=CCn1c(=O)n(-c3ccc(Cl)cc3)c(=O)n12 (centres unmarked) [Chemical Formula 24]	22.3
O=c1n(-c2ccc(Cl)cc2)c(=O)n2n1CC=C1C2c2ccc(O)cc2OC12CCCC2 (centres unmarked) [Chemical Formula 25]	44.0
CC1(C)Oc2cc(O)ccc2C2C1=CCn1c(=O)n(-c3ccccc3Cl)c(=O)n12 (centres unmarked) [Chemical Formula 26]	57.1
O=c1n(-c2ccccc2Cl)c(=O)n2n1CC=C1C2c2ccc(O)cc2OC12CCCC2 (centres unmarked) [Chemical Formula 27]	44.8
CC1(C)Oc2cc(O)ccc2C2C1=CCn1c(=O)n(-c3ccc(Br)cc3)c(=O)n12 (centres unmarked) [Chemical Formula 28]	58.4
O=c1n(-c2ccc(Br)cc2)c(=O)n2n1CC=C1C2c2ccc(O)cc2OC12CCCC2 (centres unmarked) [Chemical Formula 29]	44.0
Cn1c(=O)n2ccc3c(n2c1=O)-c1ccc(O)cc1OC3(C)C [Chemical Formula 31]	12.1
CC1(C)Oc2cc(O)ccc2C2C1C=Cn1c(=O)n(-c3ccccc3)c(=O)n12 (centres unmarked) [Chemical Formula 32]	24.9
O=c1n(-c2ccccc2)c(=O)n2n1CCC1C2c2ccc(O)cc2OC12CCCC2 (centres unmarked) [Chemical Formula 33]	41.8
COc1cccc(-n2c(=O)n3n(c2=O)C2c4ccc(O)cc4OC(C)(C)C2C=C3)c1 (centres unmarked) [Chemical Formula 34]	4.9
CC1(C)Oc2ccccc2C2C1=CCn1c(=O)n(-c3ccccc3)c(=O)n12 (centres unmarked) [Chemical Formula 35]	1.2
COc1ccc2c(c1)OC(C)(C)C1=CCn3c(=O)n(-c4ccccc4)c(=O)n3C12 (centres unmarked) [Chemical Formula 36]	3.2
CCOC(=O)CCC1(C)Oc2cc(O)ccc2C2C1=CCn1c(=O)n(-c3ccccc3)c(=O)n12 (centres unmarked) [Chemical Formula 39]	44.9
CC1(C)Oc2cc(O)ccc2C2C1=CCn1c(=O)n(-c3ccc(C(F)(F)F)cc3)c(=O)n12 (centres unmarked) [Chemical Formula 47]	36.0
CC1(C)Oc2cc(O)ccc2C2C1=CCn1c(=O)n(-c3ccc(C(=O)c4ccccc4)cc3)c(=O)n12 (centres unmarked) [Chemical Formula 48]	65.5
COC(=O)CCC1(C)Oc2cc(O)ccc2C2C1=CCn1c(=O)n(-c3ccc(C)cc3)c(=O)n12 (centres unmarked) [Chemical Formula 49]	63.2
CCNC(=O)CCC1(C)Oc2cc(O)ccc2C2C1=CCn1c(=O)n(-c3ccc(C)cc3)c(=O)n12 (centres unmarked) [Chemical Formula 51]	6.2
